Here are results for 45 compounds from ChEMBL document CHEMBL2429716, “Molecular modeling studies of substituted 3,4-dihydroxychalcone derivatives as 5-lipoxygenase and cyclooxygenase inhibitors” (Med Chem Res, 2013).

Assay [1] concerns the target T1, Polyunsaturated fatty acid 5-lipoxygenase (Rattus norvegicus, UniProt P12527).
T1 sequence (P12527 whole entry): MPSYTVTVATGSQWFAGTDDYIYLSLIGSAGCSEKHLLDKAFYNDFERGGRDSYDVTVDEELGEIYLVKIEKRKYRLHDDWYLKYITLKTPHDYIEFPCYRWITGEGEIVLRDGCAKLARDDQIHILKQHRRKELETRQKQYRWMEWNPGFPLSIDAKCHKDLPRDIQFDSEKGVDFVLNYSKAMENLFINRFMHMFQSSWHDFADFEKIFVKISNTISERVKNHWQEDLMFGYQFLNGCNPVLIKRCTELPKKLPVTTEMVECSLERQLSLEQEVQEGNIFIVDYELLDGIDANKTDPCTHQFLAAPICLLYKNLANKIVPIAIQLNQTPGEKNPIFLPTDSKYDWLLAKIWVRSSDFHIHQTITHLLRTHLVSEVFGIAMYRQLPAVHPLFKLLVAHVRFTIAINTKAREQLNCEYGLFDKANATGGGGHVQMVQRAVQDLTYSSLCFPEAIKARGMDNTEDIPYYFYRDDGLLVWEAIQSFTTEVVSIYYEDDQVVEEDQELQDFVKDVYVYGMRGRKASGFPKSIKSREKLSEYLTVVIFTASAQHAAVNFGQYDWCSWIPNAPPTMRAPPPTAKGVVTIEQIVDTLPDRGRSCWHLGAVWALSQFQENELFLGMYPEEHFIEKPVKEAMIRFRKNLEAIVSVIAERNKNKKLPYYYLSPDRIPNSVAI
As to the kind of experiment: Inhibition of 5-lipoxygenase in rat RBL1 cells. The assay is classed as cell-based, RBL-1.

Assay [2] deals with T2, Cyclooxygenase (Rattus norvegicus, UniProt P35355+Q63921).
T2 sequence (P35355 whole entry): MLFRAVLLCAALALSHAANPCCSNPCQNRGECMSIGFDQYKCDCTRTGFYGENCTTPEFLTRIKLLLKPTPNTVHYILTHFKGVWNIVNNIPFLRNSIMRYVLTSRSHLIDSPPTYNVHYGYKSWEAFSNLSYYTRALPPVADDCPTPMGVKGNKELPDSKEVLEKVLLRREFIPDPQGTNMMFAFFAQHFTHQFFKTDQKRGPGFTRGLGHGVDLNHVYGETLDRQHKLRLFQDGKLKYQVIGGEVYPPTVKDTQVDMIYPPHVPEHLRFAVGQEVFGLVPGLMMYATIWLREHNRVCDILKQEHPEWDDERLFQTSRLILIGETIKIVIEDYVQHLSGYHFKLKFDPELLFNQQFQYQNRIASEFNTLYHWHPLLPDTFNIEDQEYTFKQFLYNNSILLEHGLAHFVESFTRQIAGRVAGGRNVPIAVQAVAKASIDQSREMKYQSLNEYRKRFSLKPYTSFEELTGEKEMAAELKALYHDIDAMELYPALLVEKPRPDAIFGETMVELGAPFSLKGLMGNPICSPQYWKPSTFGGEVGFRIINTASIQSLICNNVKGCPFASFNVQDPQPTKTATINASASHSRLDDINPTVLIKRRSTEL
T2 sequence (Q63921 whole entry): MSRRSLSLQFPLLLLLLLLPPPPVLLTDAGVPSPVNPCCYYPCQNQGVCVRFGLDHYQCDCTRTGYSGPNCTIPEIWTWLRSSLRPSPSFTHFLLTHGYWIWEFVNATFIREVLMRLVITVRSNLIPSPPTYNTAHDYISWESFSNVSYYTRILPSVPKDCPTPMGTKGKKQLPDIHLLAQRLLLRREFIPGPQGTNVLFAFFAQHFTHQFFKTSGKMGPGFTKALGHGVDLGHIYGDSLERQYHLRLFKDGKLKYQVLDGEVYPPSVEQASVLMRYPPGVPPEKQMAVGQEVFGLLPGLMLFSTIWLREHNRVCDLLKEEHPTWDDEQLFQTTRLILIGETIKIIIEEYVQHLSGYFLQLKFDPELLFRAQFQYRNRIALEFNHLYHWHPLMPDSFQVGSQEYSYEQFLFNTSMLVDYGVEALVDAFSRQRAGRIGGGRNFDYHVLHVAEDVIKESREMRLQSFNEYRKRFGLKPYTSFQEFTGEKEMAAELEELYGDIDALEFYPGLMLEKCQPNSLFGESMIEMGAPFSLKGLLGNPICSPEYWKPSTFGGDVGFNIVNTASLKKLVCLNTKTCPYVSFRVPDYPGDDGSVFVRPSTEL
Nature of the assay: Inhibition of cyclooxygenase in rat RBL1 cells. It is filed as cell-based. As to conditions: rbl-1.

One may read the IC50 as the concentration that inhibits the measured activity by half. In the case of `CCOc1ccc(O)c(C(=O)/C=C/c2ccccc2)c1`, the IC50 in assay [1] and in assay [2] was 5.3 µM in each case.
Turning to `COc1ccc(/C=C/C(=O)c2ccccc2)c(OC)c1`, the IC50 in assay [1] and in assay [2] was 10 µM throughout.
For the compound `COc1ccc(OC)c(/C=C/C(=O)c2ccccc2)c1`, the IC50 in assay [1] and in assay [2] was 7.8 µM throughout.
As for `Cc1ccc(/C=C/C(=O)c2ccccc2)c(C)c1`, the IC50 in assay [1] and in assay [2] was 17 µM each time.
Consider `COc1ccc(O)c(/C=C/C(=O)c2ccccc2)c1`, for which the IC50 in assay [1] and in assay [2] was 41 µM in each case.
For the compound `COc1ccc(/C=C/C(=O)c2ccccc2)c(O)c1`, the IC50 in assay [1] and in assay [2] was 15 µM in each case.
As to `O=C(/C=C/c1ccc(O)c(O)c1)c1ccc(O)cc1O` [BUTEIN], in assay [2], the IC50 came to 0.0046 µM.
`CC(C)c1ccc(O)c(C(=O)/C=C/c2ccccc2)c1`: the IC50 in assay [1] and in assay [2] was 4 µM throughout.
Turning to `CN(C)c1cccc(/C=C/C(=O)c2ccccc2)c1`, the IC50 in assay [1] and in assay [2] was 9.8 µM each time.
For the compound `O=C(/C=C/c1ccc(O)c(O)c1)c1ccccc1`, the IC50 in assay [2] is 0.043 µM.
`CC(C)Oc1ccc(O)c(C(=O)/C=C/c2ccccc2)c1`: the IC50 in assay [1] and in assay [2] was 11 µM throughout.
In the case of `O=C(/C=C/c1ccccc1Cl)c1ccccc1`, the IC50 in assay [1] and in assay [2] was 92 µM in each case.
In assay [2], `COc1cc(/C=C/C(=O)c2ccc(Cl)cc2)ccc1O` yielded an IC50 of 8.9 µM.
Consider `CCOc1ccc(OCC)c(C(=O)/C=C/c2ccccc2)c1`, for which the IC50 in assay [1] and in assay [2] was 2.4 µM in each case.
Compound `O=C(/C=C/c1ccc(O)c(O)c1)c1ccccc1O` registered an IC50 in assay [2] of 0.023 µM.
`CN(C)c1ccc(/C=C/C(=O)c2ccccc2)cc1`: the IC50 in assay [1] and in assay [2] was 4.7 µM throughout.
As to `O=C(/C=C/c1ccc([N+](=O)[O-])cc1)c1ccccc1`, the IC50 in assay [1] and in assay [2] was 23 µM throughout.
For `CCOc1ccc(OC)cc1C(=O)/C=C/c1ccccc1`, the IC50 in assay [1] and in assay [2] was 27 µM each time.
Turning to `O=C(/C=C/c1ccc(O)c(O)c1)c1c(O)cc(O)cc1O` [3,4,2',4',6'-PENTAHYDROXYCHALCONE], the IC50 in assay [2] was found to be 0.14 µM.
As for `COc1ccc(OC)c(C(=O)/C=C/c2ccccc2)c1`, the IC50 in assay [1] and in assay [2] was 7.8 µM each time.
For the compound `COc1cccc(/C=C/C(=O)c2ccccc2)c1`, the half-maximal inhibitory concentration (IC50) in assay [1] and in assay [2] was 6.5 µM throughout.
Regarding `Cc1cccc(/C=C/C(=O)c2ccccc2)c1`, the IC50 in assay [1] and in assay [2] was 27 µM each time.
For `CC(C)Oc1ccc(/C=C/C(=O)c2ccccc2)cc1`, the IC50 in assay [1] and in assay [2] was 41 µM each time.
Regarding `COc1ccc(/C=C/C(=O)c2ccccc2)cc1` [4-METHOXY CHALCONE], the IC50 in assay [1] and in assay [2] was 20 µM in each case.
In assay [2], `O=C(/C=C/c1ccc(O)cc1)c1ccc(O)cc1O` [ISOLIQUIRITIGENIN] displayed an IC50 of 35 µM. This lies in the double-digit micromolar range.
As to `O=C(/C=C/c1ccccc1)c1cc(O)ccc1O`, the IC50 in assay [1] and in assay [2] was 64 µM throughout.
As for `O=C(/C=C/c1ccc(O)c(O)c1)c1cccc(O)c1`, in assay [2], the IC50 came to 0.0042 µM.
In the case of `COc1cc(/C=C/C(=O)c2ccccc2)cc(OC)c1OC`, the IC50 in assay [1] and in assay [2] was 16 µM in each case.
`CCCCOc1ccc(O)c(C(=O)/C=C/c2ccccc2)c1`: the IC50 in assay [1] and in assay [2] was 1 µM throughout.
With `Cc1ccc(C)c(C(=O)/C=C/c2ccccc2)c1`, the IC50 in assay [1] and in assay [2] was 16 µM throughout.
As for `COc1ccc(O)c(C(=O)/C=C/c2ccccc2)c1`, the IC50 in assay [1] and in assay [2] was 41 µM in each case.
Turning to `Cc1cc(C)c(/C=C/C(=O)c2ccccc2)c(C)c1`, the IC50 in assay [1] and in assay [2] was 400 µM in each case.
Regarding `COc1ccc(C(=O)/C=C/c2ccc(O)c(OC)c2)cc1`, the IC50 in assay [2] was 12 µM.
Turning to `COc1cccc(OC)c1/C=C/C(=O)c1ccccc1`, the IC50 in assay [1] and in assay [2] was 370 µM each time.
With `O=C(/C=C/c1ccccc1C(F)(F)F)c1ccccc1`, the half-maximal inhibitory concentration (IC50) in assay [1] and in assay [2] was 58 µM each time.
Take `COc1ccc(/C=C/C(=O)c2ccccc2)cc1OC`: the IC50 in assay [1] and in assay [2] was 18 µM throughout.
With `CCOc1ccc(OC)c(C(=O)/C=C/c2ccccc2)c1`, the IC50 in assay [1] and in assay [2] was 38 µM throughout.
Regarding `COc1ccccc1/C=C/C(=O)c1ccccc1`, the IC50 in assay [1] and in assay [2] was 27 µM throughout.
Regarding `Cc1ccc(O)c(C(=O)/C=C/c2ccccc2)c1`, the IC50 in assay [1] and in assay [2] was 39 µM in each case.
In the case of `COc1ccc(OC(C)C)cc1C(=O)/C=C/c1ccccc1`, the IC50 in assay [1] and in assay [2] was 14 µM each time.
As to `COc1ccc(C)cc1C(=O)/C=C/c1ccccc1`, the IC50 in assay [1] and in assay [2] was 24 µM each time.
For `Cc1ccc(/C=C/C(=O)c2ccccc2)cc1`, the IC50 in assay [1] and in assay [2] was 76 µM throughout.
`O=C(/C=C/c1ccccc1)c1ccccc1` [CHALCONE]: the IC50 in assay [1] and in assay [2] was 43 µM each time.
`COc1cc(/C=C/C(=O)c2ccccc2)ccc1O`: the IC50 in assay [1] and in assay [2] was 9 µM in each case.
Regarding `O=C(/C=C/c1ccc(Cl)cc1)c1ccccc1` [4-CHLORO CHALCONE], the IC50 in assay [1] and in assay [2] was 85 µM throughout.
